Counter-ions that a name gives are not always drawn.
What was measured:
[1] = Pharmacokinetics of PEGylated protease inhibitor prodrugs in rats; type: in vivo, male Sprague-Dawley rats; conditions: male, Sprague-Dawley, rat, in vivo, prodrug in plasma; for AUC / Cmax: mean ± SD; for Cmax: read-out: Cmax; for half-life: read-out: t½(z) (converted)
Protocol: (§1) Pharmacokinetic analysis of protease inhibitors described herein was conducted. To evaluate the pharmacokinetics of PEGylated protease inhibitor conjugates with releasable lipophilic attachments, test compounds were administered to male Sprague-Dawley rats.
(§2) At various times following test article administration, serial blood samples were collected from indwelling jugular vein catheters and transferred to micro-tubes containing 7.5 μL of 20% w/v K2EDTA as an anticoagulant. Following processing of the blood samples to plasma (10 minutes at 10000 rpm, Centrifuge Model: Kubota 3500), plasma concentrations of the test article or corresponding PEGylated molecule released from the test article was measured using LC-MS/MS methods. Pharmacokinetic parameters were estimated using noncompartmental methods.
Table 3 presents a summary of pharmacokinetic parameters of PEGylated protease inhibitor prodrugs, wherein Cmax is the maximum (peak) concentration, AUCall represents the area under the concentration-time curve from zero to time of last concentration value, T½ is half life, and MRTlast is the mean residence time to last observable concentration

[2] = Pharmacokinetics of released PEGylated protease inhibitor following P.O. administration of prodrugs in rats; type: in vivo, male Sprague-Dawley rats; design: AUCall Mean: concentration or dose not given beside the values; C24 Mean: unit not given here; conditions: rats (n = 4-5); for C24 Mean: concentration at 24 hours
Protocol: as §1, §2

[3] = mPEG5-atazanavir in plasma after PO administration of mPEG5-ATV or of the listed prodrug
[4] = mPEG6-atazanavir in plasma after PO administration of mPEG6-ATV or of the listed prodrug
[5] = mPEG3-atazanavir in plasma after PO administration of mPEG3-ATV or of the listed prodrug

## COCCOCCOCCOCCOCCOC(=O)N[C@H](C(=O)N[C@@H](Cc1ccccc1)[C@H](CN(Cc1ccc(-c2ccccn2)cc1)NC(=O)[C@@H](NC(=O)OC)C(C)(C)C)OC(=O)CNC(=O)[C@@H](N)C(C)C)C(C)(C)C [Val-Gly-mPEG5-Atazanavir HCl, Val-Gly-mPEG5-Atazanavir Hydrochloride]
[1]
  MRT last: 0.779 ± 0.513 h
  AUC: 14.9 ± 18.7 ng·h/mL
  Cmax: 33.7 ± 53.9 ng/mL
  half-life: 2.95 h

## COCCOCCOCCOCCOCCOC(=O)N[C@H](C(=O)N[C@@H](Cc1ccccc1)[C@H](CN(Cc1ccc(-c2ccccn2)cc1)NC(=O)[C@@H](NC(=O)OC)C(C)(C)C)OC(=O)CNC(=O)[C@@H](N)CC(C)C)C(C)(C)C [Leu-Gly-mPEG5-Atazanavir HCl, Leu-Gly-mPEG5-Atazanavir Hydrochloride]
[1]
  MRT last: 2.85 ± 3.68 h
  AUC: 1.53 ± 2.93 ng·h/mL
  Cmax: 0.479 ± 0.572 ng/mL

## COCCOCCOCCOC(=O)N[C@H](C(=O)N[C@@H](Cc1ccccc1)[C@H](CN(Cc1ccc(-c2ccccn2)cc1)NC(=O)[C@@H](NC(=O)OC)C(C)(C)C)OC(=O)[C@H](Cc1ccccc1)NC(=O)[C@@H](N)Cc1ccccc1)C(C)(C)C [Phe-Phe-mPEG3-Atazanavir, Phe-Phe-mPEG3-Atazanavir Hydrochloride]
[1]
  MRT last: 6.27 ± 1.31 h
  AUC: 609 ± 157 ng·h/mL
  Cmax: 112 ± 31.6 ng/mL
  half-life: 8.31 ± 1.21 h
[1]; 24 hr, read-out: Cmin(24 hr)
  concentration at 24 hr: 3.15 ± 0.946 ng/mL

## CCCC(=O)OC(CN(Cc1ccc(-c2ccccn2)cc1)NC(=O)C(NC(=O)OC)C(C)(C)C)C(Cc1ccccc1)NC(=O)C(NC(=O)OCCOCCOCCOCCOCCOC)C(C)(C)C (centres unmarked) [C3H7CO-mPEG5-ATV, mPEG5-Atazanavir Butyrate]
[2]; [3]
  C24 Mean: 0.00
  AUCall Mean: 3.92 ng·h/mL
  Cmax Mean: 1.44 ng/mL
  MRT last Mean: 0.984 h
  Tmax Median: 1.00 h

## COCCOCCOCCOCCOCCOCCOC(=O)NC(C(=O)NC(Cc1ccccc1)C(CN(Cc1ccc(-c2ccccn2)cc1)NC(=O)C(NC(=O)OC)C(C)(C)C)OC(=O)CNC(=O)C(N)C(C)C)C(C)(C)C.Cl (stereo not drawn) [Val-Gly-mPEG6-ATV, Val-GIy-mPEG6-Atazanavir Hydrochloride]
[2]; [4]
  AUCall Mean: 194 ng·h/mL
  Cmax Mean: 5.11 ng/mL
  MRT last Mean: 24.3 h
  Tmax Median: 7.00 h

## CCOCOC(CN(Cc1ccc(-c2ccccn2)cc1)NC(=O)C(NC(=O)OC)C(C)(C)C)C(Cc1ccccc1)NC(=O)C(NC(=O)OCCOCCOCCOCCOCCOCCOC)C(C)(C)C (centres unmarked) [Methyl ethyl ether mPEG6-ATV, mPEG6-Atazanavir Methyl Ethyl Ether]
[2]; [4]
  C24 Mean: 0.00
  AUCall Mean: 202 ng·h/mL
  Cmax Mean: 38.3 ng/mL
  MRT last Mean: 10.1 h
  Tmax Median: 2.00 h

## CCNC(=O)OC(CN(Cc1ccc(-c2ccccn2)cc1)NC(=O)C(NC(=O)OC)C(C)(C)C)C(Cc1ccccc1)NC(=O)C(NC(=O)OCCOCCOCCOCCOCCOCCOC)C(C)(C)C (centres unmarked) [mPEG6-ATV-ethylcarbamate, mPEG6-Atazanavir-NH-ethyl carbamate]
[2]; [4]
  AUCall Mean: 3.07 ng·h/mL
  Cmax Mean: 0.634 ng/mL
  MRT last Mean: 15.1 h
  Tmax Median: 1.00 h

## COCCOCCOCCOCCOCCOCCOC(=O)NC(C(=O)NC(Cc1ccccc1)C(CN(Cc1ccc(-c2ccccn2)cc1)NC(=O)C(NC(=O)OC)C(C)(C)C)OC(=O)C(CC(C)C)NC(=O)C(N)Cc1ccccc1)C(C)(C)C.Cl (stereo not drawn) [Phe-Leu-mPEG6-ATV, Phe-Leu-mPEG6-Atazanavir Hydrochloride]
[2]; [4]
  AUCall Mean: 216 ng·h/mL
  Cmax Mean: 27.4 ng/mL
  MRT last Mean: 11.0 h
  Tmax Median: 1.50 h

## CCCCC(=O)OC(CN(Cc1ccc(-c2ccccn2)cc1)NC(=O)C(NC(=O)OC)C(C)(C)C)C(Cc1ccccc1)NC(=O)C(NC(=O)OCCOCCOCCOCCOCCOCCOC)C(C)(C)C (centres unmarked) [C4H9CO-mPEG6-ATV, C4H9CO-mPEG6-atazanavir]
[2]; [4]
  AUCall Mean: 36.5 ng·h/mL
  Cmax Mean: 13.8 ng/mL
  MRT last Mean: 1.14 h
  Tmax Median: 0.750 h

## CCCCCC(=O)O[C@@H](CN(Cc1ccc(-c2ccccn2)cc1)NC(=O)[C@@H](NC(=O)OC)C(C)(C)C)[C@H](Cc1ccccc1)NC(=O)[C@@H](NC(=O)OCCOCCOCCOCCOCCOC)C(C)(C)C [C5H11CO-mPE5-ATV, C5H11CO-mPEG5-atazanavir]
[2]; [3]
  AUCall Mean: 23.7 ng·h/mL
  Cmax Mean: 7.38 ng/mL
  MRT last Mean: 2.42 h
  Tmax Median: 0.500 h

## COCCOCCOCCOC(=O)N[C@H](C(=O)N[C@@H](Cc1ccccc1)[C@H](CN(Cc1ccc(-c2ccccn2)cc1)NC(=O)[C@@H](NC(=O)OC)C(C)(C)C)OC(C)=O)C(C)(C)C [Acetyl-mPEG3-ATV, O-Acetyl-mPEG3-Atazanavir]
[2]; [5]
  AUCall Mean: 5.63 ng·h/mL
  Cmax Mean: 2.43 ng/mL
  MRT last Mean: 1.01 h
  Tmax* Median: 0.750 h

## COCCOCCOCCOCCOCCOCCOC(=O)N[C@H](C(=O)N[C@@H](Cc1ccccc1)[C@H](CN(Cc1ccc(-c2ccccn2)cc1)NC(=O)[C@@H](NC(=O)OC)C(C)(C)C)OC(=O)CNC(=O)[C@@H](N)Cc1ccccc1)C(C)(C)C.Cl [Phe-Gly-mPEG6-ATV, Phe-Gly-mPEG6-Atazanavir Hydrochloride]
[2]; [4]
  AUCall Mean: 217 ng·h/mL
  Cmax Mean: 8.86 ng/mL
  MRT last Mean: 26.1 h
  Tmax Median: 24.0 h

## CCCCC(=O)O[C@@H](CN(Cc1ccc(-c2ccccn2)cc1)NC(=O)[C@@H](NC(=O)OC)C(C)(C)C)[C@H](Cc1ccccc1)NC(=O)[C@@H](NC(=O)OCCOCCOCCOCCOCCOC)C(C)(C)C [C4H9CO-PEG5-ATV, C4H9CO-mPEG5-atazanavir]
[2]; [3]
  AUCall Mean: 39.3 ng·h/mL
  Cmax Mean: 9.46 ng/mL
  MRT last Mean: 2.43 h
  Tmax Median: 0.750 h

## CCCCCCCCCCCCCCCCOCC(COP(=O)(O)OC(CN(Cc1ccc(-c2ccccn2)cc1)NC(=O)C(NC(=O)OC)C(C)(C)C)C(Cc1ccccc1)NC(=O)C(NC(=O)OCCOCCOCCOC)C(C)(C)C)OC (centres unmarked) [PEG3-Atazanavir Monophospholipid, mPEG3-atazanavir monophospholipid]
[2]; [5]
  AUCall Mean: 7.72 ng·h/mL
  Cmax Mean: 18.7 ng/mL
  MRT last Mean: 0.640 h
  Tmax* Median: 0.250 h

## COCCOCCOCCOCCOCCOC(=O)N[C@H](C(=O)N[C@@H](Cc1ccccc1)[C@@H](O)CN(Cc1ccc(-c2ccccn2)cc1)NC(=O)[C@@H](NC(=O)OC)C(C)(C)C)C(C)(C)C [PEG5-ATV, mPEG5-atazanavir]
[2]; [3]
  AUCall Mean: 389 ng·h/mL
  Cmax Mean: 57.6 ng/mL
  MRT last Mean: 9.61 h
  Tmax Median: 0.750 h

## COCCOCCOCCOC(=O)N[C@H](C(=O)N[C@@H](Cc1ccccc1)[C@H](CN(Cc1ccc(-c2ccccn2)cc1)NC(=O)[C@@H](NC(=O)OC)C(C)(C)C)OCOCCOC)C(C)(C)C [mPEG3 ATV-Methyl ethyl methyl ether, mPEG3-Atazanavir Methyl Ethyl Methyl Ether]
[2]; [5]
  AUCall Mean: 4.10 ng·h/mL
  Cmax Mean: 0.951 ng/mL
  MRT last Mean: 1.93 h
  Tmax* Median: 2.00 h

## CCC(=O)O[C@@H](CN(Cc1ccc(-c2ccccn2)cc1)NC(=O)[C@@H](NC(=O)OC)C(C)(C)C)[C@H](Cc1ccccc1)NC(=O)[C@@H](NC(=O)OCCOCCOCCOCCOCCOCCOC)C(C)(C)C [C2H5CO-mPEG6-ATV, mPEG6-Atazanavir Propionate]
[2]; [4]
  AUCall Mean: 13.2 ng·h/mL
  Cmax Mean: 1.86 ng/mL
  MRT last Mean: 8.28 h
  Tmax Median: 2.00 h

## CCCCCCCC(=O)OC(CN(Cc1ccc(-c2ccccn2)cc1)NC(=O)C(NC(=O)OC)C(C)(C)C)C(Cc1ccccc1)NC(=O)C(NC(=O)OCCOCCOCCOCCOCCOCCOC)C(C)(C)C (centres unmarked) [C7H15CO-mPEG6-ATV, O-Octanoyl-mPEG6-Atazanavir]
[2]; [4]
  AUCall Mean: 66.0 ng·h/mL
  Cmax Mean: 11.1 ng/mL
  MRT last Mean: 4.47 h
  Tmax Median: 2.00 h

## CCOCO[C@@H](CN(Cc1ccc(-c2ccccn2)cc1)NC(=O)[C@@H](NC(=O)OC)C(C)(C)C)[C@H](Cc1ccccc1)NC(=O)[C@@H](NC(=O)OCCOCCOCCOCCOCCOC)C(C)(C)C [Methyl ethyl ether mPEG5-ATV, mPEG5-Atazanavir Methyl Ethyl Ether]
[2]; [3]
  C24 Mean: 2.7
  AUCall Mean: 489 ng·h/mL
  Cmax Mean: 95.1 ng/mL
  MRT last Mean: 6.19 h
  Tmax Median: 1.00 h

## COCCOCCOCCOCCOCCOCCOC(=O)NC(C(=O)NC(Cc1ccccc1)C(CN(Cc1ccc(-c2ccccn2)cc1)NC(=O)C(NC(=O)OC)C(C)(C)C)OC(=O)C(CC(C)C)NC(=O)C(N)CC(C)C)C(C)(C)C.Cl (stereo not drawn) [Leu-Leu-mPEG6-ATV, Leu-Leu-mPEG6-Atazanavir Hydrochloride]
[2]; [4]
  AUCall Mean: 152 ng·h/mL
  Cmax Mean: 14.2 ng/mL
  MRT last Mean: 13.1 h
  Tmax Median: 1.50 h
